Consider 14 molecules from PubChem BioAssay (NCI).

SMILES strings stand for the structures.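 The compound was tested at five concentrations on cells cultured in 96-well plates, with a 48-hour exposure period. Abbreviation: GI50, concentration required for 50% inhibition of growth. The concentration for full growth arrest is given as TGI.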 Bounds are passed on as bounds.

Some test systems named below: CAKI-1 renal; HT29 colon; MALME-3M melanoma; HL-60(TB) leukemia; OVCAR-3 ovarian; A549 NSCLC; 786-0 renal; SN12C renal; HOP-92 NSCLC; M14 melanoma.
Experiment in all cases: NCI anticancer screen, dose series, 48 h

Turning to `COc1ccc(/C=C\c2cc(OC)c(OC)c(OC)c2)c(NS(=O)(=O)c2ccc(C)cc2)c1O`, the GI50 in the experiment with CAKI-1 renal is 0.0938 µM; with HT29 colon, 0.813 µM; with MALME-3M melanoma, 16.8 µM; in the experiment on HL-60(TB) leukemia, 0.0338 µM; with OVCAR-3 ovarian, 0.03 µM; in the experiment on A549 NSCLC, 0.0473 µM. In addition, the GI50 with 786-0 renal is 0.129 µM; in the experiment on SN12C renal, 0.0736 µM; in the experiment on HOP-92 NSCLC, 0.102 µM; in the experiment with M14 melanoma it was 0.0307 µM. Further, the TGI was above 100 µM in the experiment with CAKI-1 renal; above 45.7 µM with HT29 colon; above 100 µM in the experiment on MALME-3M melanoma; 2.06 µM in the experiment with HL-60(TB) leukemia; 1.65 µM in the experiment with OVCAR-3 ovarian; above 100 µM with A549 NSCLC. Further, the TGI in the experiment with 786-0 renal was 30.2 µM; in the experiment on SN12C renal, above 76.2 µM; with HOP-92 NSCLC, 27.5 µM; with M14 melanoma, above 33.2 µM.

On to `CC[C@H](C)[C@H](NC(=O)C12C3C4C1C1C2C3C41NC(C)=O)C(=O)N(C)[C@H](C[C@@H](OC(C)=O)c1nc(C(=O)N[C@@H](Cc2ccccc2)C[C@H](C)C(=O)OC)cs1)C(C)C` (some centres undefined), for which the GI50 was above 10.8 µM in the experiment with CAKI-1 renal; 0.36 µM with HT29 colon; 0.0679 µM in the experiment on HL-60(TB) leukemia; 0.0565 µM with OVCAR-3 ovarian; 2.82 µM in the experiment on A549 NSCLC; 0.902 µM in the experiment on 786-0 renal. For the same molecule, the figures for the GI50 in the experiment on SN12C renal, in the experiment on HOP-92 NSCLC and in the experiment on M14 melanoma were 0.799 µM, above 14.3 µM and 0.259 µM, respectively. The TGI was above 14.3 µM in the experiment on CAKI-1 renal; 2.47 µM with HT29 colon; above 14.3 µM in the experiment on MALME-3M melanoma; 0.383 µM in the experiment on HL-60(TB) leukemia; 1.08 µM in the experiment with OVCAR-3 ovarian; above 14.3 µM in the experiment on A549 NSCLC. Moreover, the TGI in the experiment on 786-0 renal was above 14.3 µM; in the experiment on SN12C renal, above 14.3 µM; in the experiment on HOP-92 NSCLC it was above 14.3 µM; with M14 melanoma, 2.25 µM.

For the molecule `COc1cc(C2C(C#N)=C(N)OC3=C2C(=O)c2ccccc2C3=O)cc(OC)c1OC` (centres undefined), the GI50 was 0.736 µM with CAKI-1 renal; 3.45 µM in the experiment with HT29 colon; 1.18 µM in the experiment with MALME-3M melanoma; 2.28 µM in the experiment with HL-60(TB) leukemia; 0.493 µM with OVCAR-3 ovarian; 1.32 µM in the experiment with A549 NSCLC. Besides, the GI50 is 5.8 µM in the experiment with 786-0 renal, 1.3 µM in the experiment on SN12C renal, 0.861 µM with HOP-92 NSCLC and 0.395 µM in the experiment with M14 melanoma. In addition, the TGI turned out to be 20.6 µM in the experiment with CAKI-1 renal; 41.3 µM with HT29 colon; 13.7 µM in the experiment with MALME-3M melanoma; 6.77 µM in the experiment on HL-60(TB) leukemia; 4.18 µM in the experiment with OVCAR-3 ovarian; 29.6 µM with A549 NSCLC. Besides, the TGI with 786-0 renal is above 100 µM; in the experiment on SN12C renal, 11.1 µM; in the experiment on HOP-92 NSCLC, 24.9 µM; with M14 melanoma it was 16.1 µM.

As for `COc1ccc(NC(=O)c2cc(OC)c(OC)c(OC)c2)cc1O`, the GI50 is 3.21 µM with HT29 colon; 29.4 µM with MALME-3M melanoma; 1.08 µM in the experiment with HL-60(TB) leukemia; 4.59 µM with A549 NSCLC; 45.7 µM with 786-0 renal; 7.99 µM with SN12C renal. The GI50 in the experiment on HOP-92 NSCLC was 0.861 µM; with M14 melanoma it was 2.91 µM. In addition, the TGI in the experiment on HT29 colon is 11.6 µM; with MALME-3M melanoma it was above 100 µM; in the experiment on HL-60(TB) leukemia, 21.6 µM; in the experiment on A549 NSCLC, above 100 µM; in the experiment with 786-0 renal, above 100 µM; in the experiment on SN12C renal, above 100 µM. Besides, the TGI in the experiment on HOP-92 NSCLC and in the experiment on M14 melanoma was above 100 µM throughout.

As to `COc1ccc(NC(=O)C(=O)C2NC(=S)NC2=O)c(OC)c1` (centres undefined), the TGI with HT29 colon, with MALME-3M melanoma, in the experiment on HL-60(TB) leukemia, in the experiment with OVCAR-3 ovarian, in the experiment on A549 NSCLC and in the experiment on 786-0 renal was above 100 µM each time. Besides, the TGI with SN12C renal, with HOP-92 NSCLC and in the experiment with M14 melanoma was above 100 µM throughout.

As for `COc1ccc2c(c1)OC13Oc4cc(OC)ccc4C=C1CCCC3=C2`, the GI50 in the experiment with HT29 colon, in the experiment with MALME-3M melanoma, with HL-60(TB) leukemia, in the experiment on A549 NSCLC, in the experiment on 786-0 renal and in the experiment with SN12C renal was above 100 µM throughout. Besides, the GI50 with HOP-92 NSCLC was 4.46 µM; in the experiment with M14 melanoma, above 100 µM. Moreover, the TGI with HT29 colon, in the experiment on MALME-3M melanoma, in the experiment on HL-60(TB) leukemia, in the experiment on A549 NSCLC, in the experiment on 786-0 renal and in the experiment on SN12C renal was above 100 µM in each case. Moreover, the TGI in the experiment with HOP-92 NSCLC and in the experiment with M14 melanoma was above 100 µM throughout.

In the case of `O=[N+]([O-])c1ccc(Cl)c(C2SCc3nc4ccccc4n32)c1` (centres undefined), the TGI is 76.1 µM in the experiment with CAKI-1 renal; above 100 µM in the experiment with HT29 colon; above 100 µM in the experiment with MALME-3M melanoma; 78.5 µM with HL-60(TB) leukemia; above 100 µM with OVCAR-3 ovarian; above 100 µM in the experiment on A549 NSCLC. Moreover, the TGI was above 100 µM in the experiment with 786-0 renal, above 100 µM in the experiment with SN12C renal and 45.3 µM in the experiment with HOP-92 NSCLC.

Turning to `c1ccc(-c2nc(N3CCNCC3)c3nc(-c4ccccc4)oc3n2)cc1`, the GI50 with CAKI-1 renal was 1.55 µM; in the experiment with HT29 colon it was 1.84 µM; in the experiment on MALME-3M melanoma, 1.7 µM; in the experiment on HL-60(TB) leukemia, 1.89 µM; with OVCAR-3 ovarian, 1.78 µM; with 786-0 renal, 1.63 µM. The GI50 in the experiment on SN12C renal is 1.69 µM; with HOP-92 NSCLC, 1.5 µM; in the experiment with M14 melanoma, 1.96 µM. Also, the TGI in the experiment on CAKI-1 renal was determined as 2.94 µM; with HT29 colon it was 3.85 µM; in the experiment on MALME-3M melanoma, 3.19 µM; with HL-60(TB) leukemia, 4.08 µM; with OVCAR-3 ovarian, 3.25 µM; with 786-0 renal, 3.46 µM. In addition, the values for the TGI in the experiment on SN12C renal, in the experiment with HOP-92 NSCLC and in the experiment on M14 melanoma were 3.29 µM, 3.1 µM and 3.71 µM, respectively.

Take `O=C1C(c2ccccc2)=C(c2ccccc2)C(c2ccc(CCCCCCc3ccc(C4=C(c5ccccc5)C(=O)C(c5ccccc5)=C4c4ccccc4)cc3)cc2)=C1c1ccccc1`: the TGI with HT29 colon, with MALME-3M melanoma, with HL-60(TB) leukemia, in the experiment with OVCAR-3 ovarian, in the experiment with A549 NSCLC and in the experiment with 786-0 renal was above 100 µM each time. In addition, the TGI in the experiment on SN12C renal, in the experiment on HOP-92 NSCLC and in the experiment on M14 melanoma was above 100 µM in each case.

Turning to `COc1ccc(C2S/C(=C\c3ccc(OC)cc3OC)C(=O)N2NC(=O)Cc2ccccc2)cc1` (centres undefined), the TGI with CAKI-1 renal, in the experiment on HT29 colon, in the experiment with MALME-3M melanoma, in the experiment on HL-60(TB) leukemia, in the experiment with A549 NSCLC and in the experiment on 786-0 renal was above 100 µM throughout. The TGI in the experiment on SN12C renal, in the experiment with HOP-92 NSCLC and with M14 melanoma was above 100 µM each time.

Take `COC(=O)C1=C(C(=O)OC)C2(C(=O)OC)OC1(OC)C(C1(C(=O)OC)C(C(=O)OC)=C1C(=O)OC)=C2C(=O)OC` (centres undefined): the TGI in the experiment on HT29 colon, in the experiment with MALME-3M melanoma, in the experiment with HL-60(TB) leukemia, in the experiment on OVCAR-3 ovarian, in the experiment with A549 NSCLC and in the experiment on 786-0 renal was above 100 µM each time. Further, the TGI with SN12C renal, in the experiment on HOP-92 NSCLC and with M14 melanoma was above 100 µM throughout.

Turning to `C#Cc1ccc(NC(=O)c2ccc(/C=C/C(=O)c3nccn3C)cc2)cc1`, the GI50 in the experiment on CAKI-1 renal was 0.51 µM; with HT29 colon it was 0.54 µM; in the experiment with MALME-3M melanoma it was 0.486 µM; in the experiment on HL-60(TB) leukemia, 0.507 µM; in the experiment on OVCAR-3 ovarian, 0.416 µM; with A549 NSCLC it was 0.702 µM. In addition, the GI50 was 0.454 µM in the experiment with 786-0 renal, 0.53 µM in the experiment on HOP-92 NSCLC and 0.47 µM in the experiment with M14 melanoma. Moreover, the TGI was found to be 1.34 µM in the experiment with CAKI-1 renal; 1.32 µM with HT29 colon; 1.19 µM with MALME-3M melanoma; 1.37 µM with HL-60(TB) leukemia; 0.792 µM with OVCAR-3 ovarian; 5.02 µM with A549 NSCLC. Moreover, the TGI amounted to 0.892 µM in the experiment on 786-0 renal, 2.23 µM with HOP-92 NSCLC and 0.96 µM with M14 melanoma.

Regarding `CC#CC(=O)N1CCC[C@H]1c1nc(-c2ccc(C(=O)Nc3ccccn3)cc2)c2c(N)nccn12`, the GI50 in the experiment on HT29 colon is 55.1 µM; in the experiment on MALME-3M melanoma, 36.2 µM; in the experiment with HL-60(TB) leukemia, above 100 µM; in the experiment with OVCAR-3 ovarian, 37.2 µM; in the experiment on A549 NSCLC, above 79.1 µM; with 786-0 renal, above 100 µM. The GI50 is 47.6 µM in the experiment on SN12C renal, 25.1 µM with HOP-92 NSCLC and 56.5 µM in the experiment with M14 melanoma. The TGI with HT29 colon, with MALME-3M melanoma, in the experiment on HL-60(TB) leukemia, in the experiment with OVCAR-3 ovarian, with A549 NSCLC and with 786-0 renal was above 100 µM in each case. For the same molecule, the TGI with SN12C renal, with HOP-92 NSCLC and in the experiment on M14 melanoma was above 100 µM each time.

Take `CC1(C)OCN(c2ccc(Cl)cc2)Cn2c1nc1ccccc12`: the TGI in the experiment on HT29 colon is above 100 µM; in the experiment with MALME-3M melanoma, above 100 µM; with HL-60(TB) leukemia, 47.8 µM; in the experiment with OVCAR-3 ovarian, above 100 µM; in the experiment with A549 NSCLC it was above 100 µM; in the experiment on 786-0 renal, above 100 µM. For the same molecule, the TGI with SN12C renal, in the experiment with HOP-92 NSCLC and with M14 melanoma was above 100 µM each time.
